Experimental data reported in patent US10925857B2, “Rational drug design targeting resistant gram-negative bacterial infections to polymyxin-class antibiotics” (The Trustees of Columbia University in the City of New York, priority 2015, dated 2021).

Tests used:
E. coli BL21 strain = test: Control polymyxin growth assay, BL21 strain; type: cell-based, Escherichia coli; details: E. coli BL21, endogenous E. coli ArnT gene
Excerpt: (§1) E. coli BL21 strain is used to test efficacy of tested compounds towards the E. coli ArnT protein. […] Gi24 is E. coli BL21 ΔArnT that has been transformed with the plasmid pGi24 that expresses the wt Salmonella typhimurium ArnT. […] The Gi24 strain is used to test efficacy of tested compounds towards the Salmonella typhimurium ArnT protein.
(§2) Three strains were used for the implementation of the polymyxin B growth assay for compound screening in a 96-well plate format: (1) BL21 (DE3) E. coli strain (referred to as BL21). […] E. coli BL21 strain is used to test efficacy of tested compounds towards the E. coli ArnT protein. (2) E. coli BL21(DE3) ΔArnT the endogenous E. coli ArnT gene has been deleted, thus rendering the E. coli BL21 ΔArnT strain sensitive to polymyxin B (referred to as ΔArnT). (3) E. coli BL21(DE3) ΔArnT that has been transformed with the plasmid pGi24 that expresses the wt Salmonella typhimurium ArnT (referred to as Gi24). […]
(§3) Overnight cultures of the three strains were used to inoculate LB media containing 100 μg/ml Ampicillin alone (PMXB−) or 100 μg/ml and 3 μg/ml Polymyxin B (PMXB+) at 1:2000 dilution, as appropriate. […] The 96-well plate was transferred to an Epoch 2 microplate reader (Biotek) and shaken continuously at 37° C. Growth was continuously quantitated spectrophotometrically at 600 nm. […]

[1] = test system: E. coli BL21 ΔArnT strain; test: Control polymyxin growth assay, BL21 ΔArnT strain; type: cell-based, Escherichia coli; details: endogenous ArnT gene deleted
Excerpt: as §1, §2, §3

[2] = test system: Gi24 strain (E. coli BL21 ΔArnT expressing wt Salmonella typhimurium ArnT); test: Control polymyxin growth assay, Gi24 strain; type: cell-based, Escherichia coli; details: Gi24: BL21 ΔArnT with plasmid pGi24 expressing wt S. typhimurium ArnT
Excerpt: as §1, §2, §3

E. coli ArnT = target: T1, E. coli ArnT (Escherichia coli, UniProt P76473); test: Polymyxin B growth assay for compound screening, BL21 strain; type: cell-based; details: E. coli BL21 strain carrying E. coli ArnT; compound 0.5 mM; 3 μg/ml Polymyxin B; OD 600 nm
T1 construct: it carries the endogenous E. coli ArnT gene; endogenous in cells; host or cells: E. coli BL21(DE3)
T1 sequence (P76473 whole entry): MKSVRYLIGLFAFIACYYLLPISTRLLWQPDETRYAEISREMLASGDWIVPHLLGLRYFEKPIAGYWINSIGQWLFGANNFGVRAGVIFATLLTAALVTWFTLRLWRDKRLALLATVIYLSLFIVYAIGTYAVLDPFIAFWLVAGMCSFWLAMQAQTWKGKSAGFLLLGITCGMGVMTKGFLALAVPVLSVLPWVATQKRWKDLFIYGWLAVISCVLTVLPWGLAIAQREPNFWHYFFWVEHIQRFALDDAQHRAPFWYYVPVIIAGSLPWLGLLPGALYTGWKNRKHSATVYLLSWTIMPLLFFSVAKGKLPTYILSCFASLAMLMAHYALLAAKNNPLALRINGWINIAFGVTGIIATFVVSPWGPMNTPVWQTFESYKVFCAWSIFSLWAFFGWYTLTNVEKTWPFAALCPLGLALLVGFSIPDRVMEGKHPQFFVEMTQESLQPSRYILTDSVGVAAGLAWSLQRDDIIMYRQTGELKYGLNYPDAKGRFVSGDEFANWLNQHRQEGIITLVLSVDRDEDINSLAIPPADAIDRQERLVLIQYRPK
Excerpt: (§4) FIGS. 8A-J show graphic results of the polymyxin growth assay for the five Class I compounds obtained in target-based virtual screening. In this and all subsequent figures showing results of compound testing in the polymyxin growth assay, four curves are shown, (i) growth of test strain (BL21 for targeting E. coli ArnT or Gi24 for targeting S. typhimurium ArnT) in the absence of PMXB (−PMXB, represented by an open circle), (ii) growth of test strain in the presence of PMXB (+PMXB, represented by an open square), (iii) growth of test strain in the absence of PMXB and in the presence of test compound (−PMXB+Cmpd, represented by open diamond), and (iv) growth of test strain in the presence of PMXB and test compound (+PMXB+Cmpd, represented by an […]). Each point in the curves represents the mean of six measurements of absorbance (OD) at 600 nm (triplicate samples from two independent experiments). Standard deviation is not shown, but typically ranged from 0.001 to 0.1. Growth of E. coli BL21 strain (carrying the E. coli ArnT) was measured in the presence of Class I compounds 20, 14, 15, 19, or U2 (FIGS. 8A, 8C, SE, 8G and 8I, respectively). Growth of E. coli Gi24 strain (carrying the S. typhimurium ArnT) was measured in the presence of Class I compounds 20, 14, 15, 19, or U2 (FIGS. 8B, 8D, 8F, 8H and 8J, respectively). […]

[3] = target: T2, Salmonella typhimurium ArnT (Salmonella typhimurium, UniProt O52327); test: Polymyxin B growth assay for compound screening, Gi24 strain; type: cell-based; details: E. coli Gi24 strain carrying S. typhimurium ArnT; compound 0.5 mM; 3 μg/ml Polymyxin B; OD 600 nm
T2 construct: expressed in transfected cells; host or cells: E. coli BL21(DE3) ΔArnT transformed with plasmid pGi24 (strain Gi24)
Excerpt: as §4

Compound	growth of strain in the presence of PMXB (E. coli BL21 strain)	growth of strain in the presence of PMXB [1]	growth of strain in the presence of PMXB [2]	ArnT inhibiting activity (retardation of growth of polymyxin resistant strain in the presence of PMXB) (E. coli ArnT)	ArnT inhibiting activity (retardation of growth of polymyxin resistant strain in the presence of PMXB) [3]
polymyxin B	inherently resistant	absence of growth	growth of Gi24 strain in the presence of PMXB	–	–
Cc1[nH]nc(O)c1C(c1ccc(Cl)cc1)c1c(O)n[nH]c1C [Compound 20, 4-[(4-chlorophenyl)-(3-methyl-5-oxo-1,2-dihydropyrazol-4-yl)methyl]-5-methyl-1,2-dihydropyrazol-3-one]	–	–	–	especially strong ArnT inhibiting activity	especially strong ArnT inhibiting activity
